Experimental data as given in patent publication US20120328638A1, “MYBL2 PEPTIDES AND VACCINES CONTAINING THE SAME” (Onco Therapy Science, Inc., priority 2009, published 2012).
Entries after “also recorded” stand apart in the source; their conditions may differ. Ends that are not written are not given here.

Tests used:
peptide-pulsed T2 cells = test: IFN-gamma ELISPOT assay of peptide specific CTL activity after in vitro CTL induction; format: cell-based, human; conditions: against peptide-pulsed T2 cells compared with control not pulsed; PBMCs of HLA-A*0201 positive donor; day 21
Text: Monocyte-derived dendritic cells (DCs) were used as antigen-presenting cells (APCs) to induce cytotoxic T lymphocyte (CTL) responses against peptides presented on human leukocyte antigen (HLA). DCs were generated in vitro as described elsewhere (Nakahara S et al., Cancer Res 2003 Jul. 15, 63(14): 4112-8). Specifically, peripheral blood mononuclear cells (PBMCs) isolated from a normal volunteer (HLA-A*0201 positive) by Ficoll-Plaque (Pharmacia) solution were separated by adherence to a plastic tissue culture dish (Becton Dickinson) so as to enrich them as the monocyte fraction. The monocyte-enriched population was cultured in the presence of 1000 U/ml of granulocyte-macrophage colony-stimulating factor (R&D System) and 1000 U/ml of interleukin (IL)-4 (R&D System) in AIM-V Medium (Invitrogen) containing 2% heat-inactivated autologous serum (AS). After 7 days of culture, the cytokine-induced DCs were pulsed with 20 microgram/ml of each of the synthesized peptides in the presence of 3 microgram/ml of beta 2-microglobulin for 3 hrs at 37 degrees C. in AIM-V Medium. The generated cells appeared to express DC-associated molecules, such as CD80, CD83, CD86 and HLA class II, on their cell surfaces (data not shown). […]

[1] = tested on: target cells pulsed with the corresponding peptide (T2); test: IFN-gamma ELISA assay of established CTL line and CTL clone; format: cell-based, human
Procedure: CTLs were expanded in culture using the method similar to the one described by Riddell et al. (Walter E A et al., N Engl J Med 1995 Oct. 19, 333(16): 1038-44; Riddell S R et al., Nat Med 1996 February, 2(2): 216-23). A total of 5×10^4 CTLs were suspended in 25 ml of AIM-V/5% AS medium with 2 kinds of human B-lymphoblastoid cell lines, inactivated by Mitomycin C, in the presence of 40 ng/ml of anti-CD3 monoclonal antibody (Pharmingen). One day after initiating the cultures, 120 IU/ml of IL-2 were added to the cultures. The cultures were fed with fresh AIM-V/5% AS medium containing 30 IU/ml of IL-2 on days 5, 8 and 11 (Tanaka H et al., Br J Cancer 2001 Jan. 5, 84(1): 94-9; Umano Y et al., Br J Cancer 2001 Apr. 20, 84(8): 1052-7; Uchida N et al., Clin Cancer Res 2004 Dec. 15, 10(24): 8577-86; Suda T et al., Cancer Sci 2006 May, 97(5): 411-9; Watanabe T et al., Cancer Sci 2005 August, 96(8): 498-506).
The dilutions were made to have 0.3, 1, and 3 CTLs/well in 96 round-bottomed micro titer plate (Nalge Nunc International). CTLs were cultured with 1×10^4 cells/well of 2 kinds of human B-lymphoblastoid cell lines, 30 ng/ml of anti-CD3 antibody, and 125 U/ml of IL-2 in a total of 150 microliter/well of AIM-V Medium containing 5% AS. 50 microliter/well of IL-2 were added to the medium 10 days later so to reach a final concentration of 125 U/ml IL-2. […]

[2] = tested on: COS7 cells transfected with MYBL2 and HLA-A*0201; test: Specific CTL activity against target cells exogenously expressing MYBL2 and HLA-A*0201; format: cell-based, African green monkey
Text: The cDNA encoding an open reading frame of target genes or HLA-A*0201 was amplified by PCR. The PCR-amplified product was cloned into expression vector. The plasmids were transfected into COS7, which is the target genes and HLA-A*0201-null cell line, using lipofectamine 2000 (Invitrogen) according to the manufacturer's recommended procedures. After 2 days from transfection, the transfected cells were harvested with versene (Invitrogen) and used as the stimulator cells (5×10^4 cells/well) for CTL activity assay.
The established CTL clone raised against MYBL2-A02-9-144 (SEQ ID NO: 3) was examined for the ability to recognize target cells that express MYBL2 and HLA-A*0201 molecule. […] COS7 cells transfected with either full length of MYBL2 or HLA-A* 0201 were prepared as the controls.

Sequence | IFN-gamma production of CTLs stimulated with peptide (ELISPOT) (peptide-pulsed T2 cells) | IFN-gamma production of CTL clone (ELISA) ([1]; CTL clone established by limiting dilution, target cells pulsed with peptide vs not pulsed) | IFN-gamma production of CTL line (ELISA) ([1]; CTL line from well #8, target cells pulsed with peptide vs without peptide pulse) | Specific CTL activity of CTL clone against COS7 cells expressing both MYBL2 and HLA-A*0201 ([2]; COS7 transfected with both full length MYBL2 and HLA-A*0201) | Specific CTL activity of CTL clone against control COS7 cells ([2]; COS7 transfected with either full length MYBL2 or HLA-A*0201 alone)
RIICEAHKV [MYBL2-A02-9-144, RIICEAHKV] | potent IFN-gamma production | potent IFN-gamma production | potent IFN-gamma production | potent CTL activity; also recorded: specific CTL activity | no significant specific CTL activity was detected
VLPPRQPSA [MYBL2-A02-9-355, VLPPRQPSA] | specific IFN-gamma production was not observed; also recorded: no specific IFN-gamma production was detected |  |  |  | 
